Test [1] concerns HepG2. Kind of test: Induction of p53 protein level in human HepG2 cells at 50 uM upto 24 hrs by immunoblot analysis. Type of test: functional, cell-based. On the technique in general: Immunoblotting shows a protein as a band on a membrane.
The subject of test [2] is HepG2. Kind of test: Induction of p53 protein level in human HepG2 cells at 50 uM by immunoblot analysis. Type of test: functional, cell-based. The note with it: TDE = time-dependent effect.

Molecules are shown by their SMILES. The source made the active and inactive calls. The rule behind the calls is not given here.

For the molecule `CN(CCOc1ccc(CC2SC(=O)NC2=O)cc1)c1ccccn1` (centres undefined), the result in the test with HepG2 [1] was inactive.

Take `CCc1ccc(CCOc2ccc(CC3SC(=O)NC3=O)cc2)nc1` (centres undefined): the outcome in the test with HepG2 [1] was inactive. As for `Cc1c(C)c2c(c(C)c1O)CCC(C)(COc1ccc(CC3SC(=O)NC3=O)cc1)O2` (centres undefined), the Activity result with HepG2 [2] was “tde”. The result in the test with HepG2 [1] was Active.

These data come from ChEMBL document CHEMBL3407474, “Structural insight of glitazone for hepato-toxicity: Resolving mystery by PASS” (Bioorg Med Chem Lett, 2015).
